Target: Rsk1 (Rattus norvegicus, UniProt Q63531)
Assay: Rsk1(r) kinase assay, 33P-ATP filter binding
Format: biochemical
Conditions: compound at 3 μM; [ATP] = 10 μM
Method: The assays briefly described below in Examples 54-123 were carried out as described in Davies et al., Biochem. J., 351:95-105 (2000). All assays were carried out at 10 μM ATP unless otherwise noted.
All kinases are pre-diluted to a 10× working concentration prior to addition into the assay. The composition of the dilution buffer for each kinase is described below in Table 3.
In addition, the following abbreviations are used: h is human; r is rat; m is mouse; b is bovine; and y is yeast.
In a final reaction volume of 25 μl, Rsk1(r) (5-10 mU) is incubated with 8 mM MOPS pH 7.0, 0.2 mM EDTA, 30 μM […], 10 mM MgAcetate and [γ-^33P-ATP] (Specific activity approx. 500 cpm/pmol, concentration as required). The reaction is initiated by the addition of Mg^2+[γ-^33P-ATP]. After incubation for 40 minutes at room temperature, the reaction is stopped by the addition of 5 μl of a 3% phosphoric acid solution. 10 μl of the reaction is then spotted onto a P30 filtermat and washed three times for 5 minutes in 75 mM phosphoric acid and once in methanol prior to drying and scintillation counting.
Using the appropriate assay protocols as listed above, kinase inhibition data for Compounds 21 and 71 was determined for the following kinases: CDK1/cyclin B, CDK2/cyclin A, cSRC, Yes, MEK1, and Rsk1.

Sequence of Rsk1 (Q63531 whole entry): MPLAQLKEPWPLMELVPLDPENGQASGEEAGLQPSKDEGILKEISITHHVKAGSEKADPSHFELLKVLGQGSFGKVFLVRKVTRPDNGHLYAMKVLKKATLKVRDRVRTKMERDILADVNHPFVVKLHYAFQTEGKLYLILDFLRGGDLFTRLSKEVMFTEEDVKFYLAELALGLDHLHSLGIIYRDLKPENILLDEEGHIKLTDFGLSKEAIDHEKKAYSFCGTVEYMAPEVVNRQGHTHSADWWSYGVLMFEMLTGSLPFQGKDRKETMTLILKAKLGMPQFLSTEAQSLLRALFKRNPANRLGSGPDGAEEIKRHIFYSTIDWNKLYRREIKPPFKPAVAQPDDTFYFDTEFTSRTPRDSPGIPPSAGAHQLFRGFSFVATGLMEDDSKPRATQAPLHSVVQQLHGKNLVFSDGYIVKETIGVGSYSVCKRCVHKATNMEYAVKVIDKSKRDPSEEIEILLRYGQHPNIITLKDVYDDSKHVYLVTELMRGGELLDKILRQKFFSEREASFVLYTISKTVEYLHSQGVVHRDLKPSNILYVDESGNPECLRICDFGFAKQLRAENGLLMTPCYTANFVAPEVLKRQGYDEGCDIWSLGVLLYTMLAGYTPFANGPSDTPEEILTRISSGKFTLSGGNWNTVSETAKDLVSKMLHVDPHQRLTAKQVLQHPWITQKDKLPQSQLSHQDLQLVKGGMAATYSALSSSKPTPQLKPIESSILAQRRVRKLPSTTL

COc1ccc2cc(-c3n[nH]c4ccc(-c5n[nH]c(CN6CCOCC6)n5)cc34)ccc2c1 [Compound 20]
Rsk1 (% control): 4 % control

CC(C)(C)Cc1nc(-c2ccc3[nH]nc(-c4ccc5cc(OCc6ccccn6)ccc5c4)c3c2)n[nH]1 [Compound 92]
Rsk1 (% control): 29 % control

Source: US20060004043A1, “Indazole compounds and methods of use thereof” (priority 2003, published 2006)
